According to US12491207B2, “Article of manufacture comprising local anesthetic, buffer, and glycosaminoglycan in syringe with improved stability” (Vaneltix Pharma, Inc., priority 2017, dated 2025):
Where a name gives a salt, the structure may show the parent alone.

Assay: Loss of lidocaine HCl on sterilization and storage in glass or plastic containers
Format: physicochemical
Procedure: This composition was packaged in 20-mL cyclic olefin polymer (COP) and polypropylene (PP) syringes; the polypropylene was not non-nucleated. Storage conditions were, as indicated below, either 25° C./60% relative humidity (RH) or 40° C./75% RH.
Testing points were as follows: at the initiation of the stability study, after 1 month, 2 months, 3 months, 6 months, and 12 months.
Additionally, the syringe parts (the plunger and the syringe body) were analyzed for leachables.

CCN(CC)CC(=O)Nc1c(C)cccc1C [lidocaine hydrochloride]
loss of lidocaine hydrochloride after sterilization (FIG. 9) (glass vials, 80 mM phosphate buffer): small loss | loss of lidocaine hydrochloride after sterilization (FIG. 9) (glass vials, different phosphate buffer molarities except 80 mM): no loss | loss of lidocaine hydrochloride after sterilization (FIG. 9) (plastic syringes, increasing with phosphate buffer molarity): significant loss
